Here are results for 22 molecules from patent US20050026968A1, “Heterocyclic amides with anti-tuberculosis activity” (priority 2003, published 2005).

One may read the MIC as the least concentration at which growth counts as inhibited. What is called MIC90 is an inhibitory concentration at the 90% level, which refers to growth in some studies and to a panel of isolates in others. A higher MIC90 goes with lower susceptibility.

A short description of data set [1]: Maximum Tolerated Dose (MTD), single oral dose. As to conditions: mice, oral gavage, escalating dose 100, 300 and 500 mg/kg. As to the method:
An assay for Maximum Tolerated Dose (MTD) was also utilized. […] Three different concentrations are tested, generally at 100, 300 and 500 mg/kg. The latter dose is about twice to five times the dose used for efficacy testing of the compound in mice. After 7 days of observation the mice are sacrificed and the organs are studied for any adverse effects. In case of abnormalities the organs are fixed in formalin and given for extensive pathology analysis.
Maximum tolerated dosing was performed on these selected compounds. An escalating dose of drug (100, 300 and 500 mg/kg) was given to mice by oral gavage.

The target in data set [2] is UDP-galactose mutase (Glf) (Mycobacterium tuberculosis, UniProt P9WIQ1). As to the kind of experiment: microtitre plate based screen of Glf (enzymatic inhibition). The class given is biochemical. The following applies: in words.
The subject of another data set is M. tuberculosis. The class given is in vivo, mice. The following applies: in words.
The subject of another data set is M. tuberculosis H37Ra. Briefly: MIC against M. tuberculosis H37Ra, micro broth dilution in microtiter plates. As to conditions: for MIC / MIC90: Mycobacterium tuberculosis, H37RA. On the technique in general: Broth dilution looks for growth in wells or tubes with falling amounts of substance.
Setting [3] is: Table 5, M. tuberculosis H37Ra, MIC90.
The mark [4] stands for this setting: Table 6, M. tuberculosis H37Ra, MIC90.

Converted amounts (≈) assume the structure as drawn. Where two headings read alike, the source gives them in different places.

UDP-galactose mutase (Glf), sequence (P9WIQ1 whole entry): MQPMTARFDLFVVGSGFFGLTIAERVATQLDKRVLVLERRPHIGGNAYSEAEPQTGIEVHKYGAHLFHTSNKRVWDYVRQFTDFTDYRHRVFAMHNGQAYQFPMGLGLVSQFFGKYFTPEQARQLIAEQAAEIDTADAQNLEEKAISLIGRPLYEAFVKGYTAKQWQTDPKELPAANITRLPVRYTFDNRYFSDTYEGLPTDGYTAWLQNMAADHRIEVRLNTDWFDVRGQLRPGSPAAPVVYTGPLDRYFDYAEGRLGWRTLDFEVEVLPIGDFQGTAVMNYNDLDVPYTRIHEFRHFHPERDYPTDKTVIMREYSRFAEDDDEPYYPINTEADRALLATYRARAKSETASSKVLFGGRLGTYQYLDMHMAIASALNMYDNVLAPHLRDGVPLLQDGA

Take `O=C(Nc1cccc(Cl)c1)c1ccc([N+](=O)[O-])o1` [Compound 10, 5-Nitro-furan-2-carboxylic acid(3-chloro-phenyl)-amide]: the “maximum tolerated dosing, observed effect” value (shortened to “maximum tolerated dosing”) in data set [1] is recorded as “no effect at the maximum dose”. In addition, the “enzymatic inhibition of Glf” value in data set [2] is “best inhibitors of GIf”.
With `O=C(Nc1cccc(F)c1)c1ccc([N+](=O)[O-])o1` [Compound 12, 5-Nitro-furan-2-carboxylic acid(3-fluoro-phenyl)-amide], the “maximum tolerated dosing” value in data set [1] is reported as “no effect at the maximum dose”.
In the case of `COc1cccc(NC(=O)c2ccc([N+](=O)[O-])o2)c1` [Compound 13, 5-Nitro-furan-2-carboxylic acid(3-methoxy-phenyl)-amide], in data set [1], the “maximum tolerated dosing” value is reported as “some pathology at 500 mg/kg”. Also, in data set [2], the “enzymatic inhibition of Glf” value was “best inhibitors of GIf”.
As for `COc1ccc(CNC(=O)c2ccc([N+](=O)[O-])o2)cc1OC` [Compound 23, 5-Nitro-furan-2-carboxylic acid 3,4-dimethoxy-benzylamide], in the data set with M. tuberculosis, the “oral activity against M. tuberculosis in the mouse infection model” value is given as “significant oral activity”. In addition, the “maximum tolerated dosing” value in data set [1] is “no effect at the maximum dose”. For the same molecule, the MIC in the data set with M. tuberculosis H37Ra turned out to be 200 µg/mL (≈ 653 µM); with M. tuberculosis H37Ra (168 h, read-out: TB MIC, Table 1, M. tuberculosis H37Ra, 7 days, MIC90 (>90% inhibition of growth)) it was 0.2 µg/mL (≈ 0.653 µM). In the data set with M. tuberculosis H37Ra (against H37Ra, in words), the “MIC activity compared with classical TB drugs (FIG. 1)” value is “as active as ethambutol and streptomycin”.
Take `CCN(CC)c1ccc(CN2CCN(C(=O)c3ccc([N+](=O)[O-])o3)CC2)cc1` [Compound 88]: the minimum inhibitory concentration (MIC) in the data set with M. tuberculosis H37Ra (setting [3]) is less than 0.1 µg/mL.
`COc1ccc(CN2CCN(C(=O)c3ccc([N+](=O)[O-])o3)CC2)c(OC)c1` [Compound 89] returned an MIC against M. tuberculosis H37Ra (setting [3]) of less than 0.1 µg/mL.
In turn, `CC(=O)c1ccc(N2CCN(C(=O)c3ccc([N+](=O)[O-])o3)CC2)cc1` [Compound 91] showed an MIC in the data set on M. tuberculosis H37Ra (setting [3]) of less than 10.1 µg/mL.
The molecule `O=C(NCc1ccc(N2CCSCC2)cc1)c1ccc([N+](=O)[O-])o1` [Compound 92, 5-Nitro-furan-2-carboxylic acid 4-thiomorpholin-4-yl-benzylamide] yielded an MIC against M. tuberculosis H37Ra (setting [4]) of 0.05 µg/mL (≈ 0.144 µM).
The same measure, in the same setting: for `NC1CCN(c2ccc(CNC(=O)c3ccc([N+](=O)[O-])o3)cc2)C1` (stereo not shown) [Compound 95, 5-Nitro-furan-2-carboxylic acid 4-(3-amino-pyrrolidin-1-yl)-benzylamide] the value was 0.8 µg/mL (≈ 2.42 µM); for `CC(C)(C)OC(=O)N1CCN(c2ccc(CNC(=O)c3ccc([N+](=O)[O-])o3)cc2)CC1` [Compound 96, 4-(4-{[(5-Nitro-furan-2-carbonyl)-amino]-methyl}-phenyl)-piperazine-1-carboxylic acid tert-butyl ester], 0.0002 µg/mL (≈ 0.000465 µM); for `O=C(NCc1ccc(N2CCNCC2)cc1)c1ccc([N+](=O)[O-])o1` [Compound 97, 5-Nitro-furan-2-carboxylic acid 4-piperazin-1-yl-benzylamide], 0.8 µg/mL (≈ 2.42 µM).
Still for that read-out and setting: for `O=C(NCc1ccc(N2CCN(CC3CC3)CC2)cc1)c1ccc([N+](=O)[O-])o1` [Compound 98, 5-Nitro-furan-2-carboxylic acid 4-(4-cyclopropylmethyl-piperazin-1-yl)-benzylamide] the value was 0.05 µg/mL (≈ 0.13 µM).
For the molecule `O=C(NCc1ccc(N2CCN(Cc3ccccc3)CC2)c(F)c1)c1ccc([N+](=O)[O-])o1` [Compound 99, 5-Nitro-furan-2-carboxylic acid 4-(4-benzyl-piperazin-1-yl)-3-fluoro-benzylamide], the MIC in the data set with M. tuberculosis H37Ra (setting [4]) was 0.0125 µg/mL (≈ 0.0285 µM).
On the same count and under the same terms, for `CN1CCN(c2ccc(CNC(=O)c3ccc([N+](=O)[O-])o3)cc2F)CC1` [Compound 100, 5-Nitro-furan-2-carboxylic acid 3-fluoro-4-(4-methyl-piperazin-1-yl)-benzylamide] the value was 0.4 µg/mL (≈ 1.1 µM).
On the same count and under the same terms, for `O=C(NCc1ccc(N2CCSCC2)c(F)c1)c1ccc([N+](=O)[O-])o1` [Compound 101, 5-Nitro-furan-2-carboxylic acid 3-fluoro-4-thiomorpholin-4-yl-benzylamide] the value was 0.2 µg/mL (≈ 0.547 µM).
In the data set on M. tuberculosis H37Ra (setting [4]), `O=C(NCc1ccc(N2CCOCC2)c(F)c1)c1ccc([N+](=O)[O-])o1` [Compound 102, 5-Nitro-furan-2-carboxylic acid 3-fluoro-4-morpholin-4-yl-benzylamide] registered an MIC of 0.2 µg/mL (≈ 0.573 µM).
Molecule `O=C(NCc1ccc(N2CCC(Cc3ccccc3)CC2)c(F)c1)c1ccc([N+](=O)[O-])o1` [Compound 103, 5-Nitro-furan-2-carboxylic acid 4-(4-benzyl-piperidin-1-yl)-3-fluoro-benzylamide] came in with an MIC in the data set on M. tuberculosis H37Ra (setting [4]) of 0.0125 µg/mL (≈ 0.0286 µM).
The same measure, in the same setting: for `CCOC(=O)N1CCN(c2ccc(CNC(=O)c3ccc([N+](=O)[O-])o3)cc2)CC1` [Compound 104, 4-(4-{[(5-Nitro-furan-2-carbonyl)-amino]-methyl}-phenyl)-piperazine-1-carboxylic acid ethyl ester] the value was 0.004 µg/mL (≈ 0.00994 µM); for `CCCNC(=O)N1CCN(c2ccc(CNC(=O)c3ccc([N+](=O)[O-])o3)cc2)CC1` [Compound 105, 4-(4-{[(5-Nitro-furan-2-carbonyl)-amino]-methyl}-phenyl)-piperazine-1-carboxylic acid propylamide], 0.0125 µg/mL (≈ 0.0301 µM).
On the same count and under the same terms, for `CC(C)NC(=O)N1CCN(c2ccc(CNC(=O)c3ccc([N+](=O)[O-])o3)cc2)CC1` [Compound 106, 4-(4-{[(5-Nitro-furan-2-carbonyl)-amino]-methyl}-phenyl)-piperazine-1-carboxylic acid isopropylamide] the value was 0.0062 µg/mL (≈ 0.0149 µM).
In the case of `NNC(=O)c1ccncc1` [Isoniazid, isoniazid, reference compound], the MIC90 against M. tuberculosis H37Ra came out at 0.05 µg/mL (≈ 0.365 µM).
For the molecule `CC[C@@H](CO)NCCN[C@@H](CC)CO` [ethambutol, reference compound], the MIC90 in the data set with M. tuberculosis H37Ra is 0.78 µg/mL (≈ 3.82 µM).
